Data on 21 compounds can be found in US9675070B2 (BAYER CROPSCIENCE AG, priority 2013, dated 2017).

Holding throughout (assay type): in vivo
Experiment [1] deals with larvae of the mustard beetle (Phaedon cochleariae). Briefly: Phaedon cochleariae spray test (PHAECO). To be noted: Chinese cabbage leaf discs, after 7 days. How it is done:
Phaedon cochleariae—Spray Test (PHAECO)
(§1) Solvents: 78.0 parts by weight of acetone
(§2) • 1.5 parts by weight of dimethylformamide Emulsifier: alkylaryl polyglycol ether
(§3) To produce a suitable preparation of active compound, 1 part by weight of active compound is dissolved using the stated parts by weight of solvent and made up with water comprising an emulsifier concentration of 1000 ppm until the desired concentration is reached. To produce further test concentrations, the preparation is diluted with emulsifier-containing water.
After 7 days, the efficacy in % is determined. 100% means that all of the beetle larvae have been killed; 0% means that none of the beetle larvae have been killed.

Experiment [2] concerns adult cat fleas (Ctenocephalides felis). Briefly: Ctenocephalides felis oral test (CTECFE). Conditions: application rate 100 ppm in citrated cattle blood; after 2 days. As for the experimental part:
Ctenocephalides felis-Oral Test ([…]) Solvent: dimethyl sulphoxide To produce a suitable preparation of active compound, 10 mg of active compound are mixed with 0.5 ml of dimethyl sulphoxide. Dilution with citrated cattle blood gives the desired concentration. About 20 unfed adult cat fleas (Ctenocephalides felis) are placed into a chamber which is closed at the top and bottom with gauze. A metal cylinder whose bottom end is closed with a parafilm is placed onto the chamber. The cylinder contains the blood/active ingredient preparation, which can be imbibed by the fleas through the parafilm membrane. After 2 days, the kill in % is determined. 100% means that all of the fleas have been killed; 0% means that none of the fleas have been killed.

The subject of experiment [3] is L1 larvae of the Australian sheep blowfly (Lucilia cuprina). Briefly: Lucilia cuprina test (LUCICU). To be noted: application rate 100 ppm; minced horsemeat; after 2 days. As for the experimental part: Lucilia cuprina Test (LUCICU) Solvent: dimethyl sulphoxide To produce a suitable preparation of active compound, 10 mg of active compound are mixed with 0.5 ml of dimethyl sulphoxide, and the concentrate is diluted with water to the desired concentration. About 20 L1 larvae of the Australian sheep blowfly (Lucilia cuprina) are transferred into a test vessel containing minced horsemeat and the active compound preparation of the desired concentration. After 2 days, the kill in % is determined. 100% means that all of the larvae have been killed; 0% means that none of the larvae have been killed.

The test system of experiment [4] is caterpillars of the armyworm (Spodoptera frugiperda). Briefly: Spodoptera frugiperda spray test (SPODFR). To be noted: maize leaf discs, after 7 days. How it is done:
Spodoptera frugiperda—Spray Test (SPODFR)
as §1, §2, §3
Leaf discs of maize (Zea mays) are sprayed with an active compound preparation of the desired concentration and, after drying, populated with caterpillars of the armyworm (Spodoptera frugiperda).
After 7 days, the efficacy in % is determined. 100% means that all of the caterpillars have been killed; 0% means that none of the caterpillars have been killed.

Experiment [5] has as its system engorged adult female cattle ticks (Boophilus microplus). Briefly: Boophilus microplus injection test (BOOPMI Inj). To be noted: application rate 20 μg/animal; injection into abdomen; assessed after 7 days. How it is done: Boophilus microplus Injection Test (BOOPMI Inj)
Solvent: dimethyl sulphoxide
To produce a suitable preparation of active compound, 10 mg of active compound are mixed with 0.5 ml of solvent, and the concentrate is diluted with solvent to the desired concentration.
1 μl of the active compound solution is injected into the abdomen of 5 engorged adult female cattle ticks (Boophilus microplus). The animals are transferred into dishes and kept in a climate-controlled room.
The activity is assessed after 7 days by laying of fertile eggs. Eggs whose fertility is not visible from the outside are stored in a climate-controlled cabinet until the larvae hatch after about 42 days. An efficacy of 100% means that none of the ticks has laid any fertile eggs; 0% means that all eggs are fertile.

In experiment [6] the test system is adult houseflies (Musca domestica). Briefly: Musca domestica test (MUSCDO). Conditions: application rate 100 ppm; after 2 days. How it is done: Musca domestica Test (MUSCDO) Solvents: dimethyl sulphoxide To produce a suitable preparation of active compound, 10 mg of active compound are mixed with 0.5 ml of dimethyl sulphoxide, and the concentrate is diluted with water to the desired concentration. Vessels containing a sponge treated with sugar solution and the active compound preparation of the desired concentration are populated with 10 adult houseflies (Musca domestica). After 2 days, the kill in % is determined. 100% means that all of the flies have been killed; 0% means that none of the flies have been killed.

Experiment [7] deals with greenhouse red spider mite (Tetranychus urticae), OP-resistant. Briefly: Tetranychus urticae spray test, OP-resistant (TETRUR). To be noted: bean leaf discs, after 6 days. As for the experimental part: Tetranychus urticae—Spray Test, OP-Resistant (TETRUR)
as §1, §2, §3
Discs of bean leaves (Phaseolus vulgaris) which are infested by all stages of the greenhouse red spider mite (Tetranychus urticae) are sprayed with an active compound preparation of the desired concentration.
After 6 days, the efficacy in % is determined. 100% means that all of the spider mites have been killed; 0% means that none of the spider mites have been killed.

`CC(=O)NC(C)c1cccc(-c2cnn(-c3c(C(F)(F)F)c(C(F)(F)C(F)(F)F)nn3C)c2)c1` (stereo not shown) [Ic-31] had an efficacy in % in experiment [1] (application rate 100 g/ha) of 100%.
For the compound `CCC(=O)NCc1cc(-c2cnn(-c3c(C(F)(F)F)c(C(F)(F)C(F)(F)F)nn3C)n2)ccc1F` [If-1], the kill in % is recorded as 100% in experiment [2], 100% in experiment [3] and 80% in experiment [6]. The efficacy in % in experiment [1] (application rate 100 g/ha) and in experiment [4] (application rate 100 g/ha) was 100% throughout. Besides, the “efficacy (no laying of fertile eggs)” value in experiment [5] was determined as 100%.
On to `Cn1nc(C(F)(F)C(F)(F)F)c(C(F)(F)F)c1-n1cc(-c2cccc(CNC(=O)C3CC3)c2)nn1` [Ig-2], for which the kill in % in experiment [2], in experiment [3] and in experiment [6] was 100% in each case. Further, the efficacy in % in experiment [1] (application rate 100 g/ha) is recorded as 100%. Besides, the “efficacy (no laying of fertile eggs)” value in experiment [5] was found to be 100%.
Consider `Cn1nc(C(F)(F)C(F)(F)F)c(C(F)(F)F)c1-n1cc(-c2ccc(F)c(CNC=O)c2)cn1` [Ic-19], for which the kill in % in experiment [2] and in experiment [3] was 100% throughout. The efficacy in % in experiment [1] (application rate 500 g/ha) worked out at 100%; in experiment [4] (application rate 500 g/ha), 83%; in experiment [7] (application rate 500 g/ha) it was 90%. In addition, the “efficacy (no laying of fertile eggs)” value in experiment [5] came out at 100%.
As to `Cn1nc(C(F)(F)C(F)(F)F)c(C(F)(F)F)c1-n1cc(-c2ccc(F)c(CNC(=O)C(F)(F)F)c2)cn1` [Ic-6], the kill in % in experiment [2] stood at 100%; in experiment [3] it was 100%; in experiment [6] it was 80%. Moreover, the efficacy in % in experiment [1] (application rate 100 g/ha) and in experiment [7] (application rate 100 g/ha) was 100% each time. Further, the “efficacy (no laying of fertile eggs)” value in experiment [5] is on record as 100%.
As for `CCC(=O)NCc1cc(-c2ccn(-c3c(C(F)(F)F)c(C(F)(F)C(F)(F)F)nn3C)n2)ccc1F` [Id-2], the values for the kill in % in experiment [2] and in experiment [3] were 80% and 90%, respectively. Also, the efficacy in % in experiment [1] (application rate 100 g/ha) and in experiment [4] (application rate 100 g/ha) was 100% throughout. Also, in experiment [5], the “efficacy (no laying of fertile eggs)” value turned out to be 90%.
In the case of `Cn1nc(C(F)(F)C(F)(F)F)c(C(F)(F)F)c1-n1cc(-c2ccc(F)c(CNC(=O)c3cccnc3)c2)cn1` [Ic-15], the “efficacy (no laying of fertile eggs)” value in experiment [5] came out at 90%. The compound also came in with an efficacy in % in experiment [7] (application rate 100 g/ha) of 100%.
As to `CSC(C)C(=O)NCc1cc(-c2cnn(-c3c(C(F)(F)F)c(C(F)(F)C(F)(F)F)nn3C)c2)ccc1F` (stereo not shown) [Ic-30], the figures for the kill in % in experiment [2] and in experiment [3] were 95% and 100%, respectively. In addition, the “efficacy (no laying of fertile eggs)” value in experiment [5] came to 100%. The compound also gave an efficacy in % in experiment [7] (application rate 100 g/ha) of 100%.
Turning to `Cn1nc(C(F)(F)C(F)(F)F)c(C(F)(F)F)c1-n1cc(-c2ccc(F)c(CNC(=O)c3cncnc3)c2)cn1` [Ic-27], the kill in % in experiment [2] turned out to be 90%. The efficacy in % in experiment [1] (application rate 100 g/ha) amounted to 83%; in experiment [7] (application rate 100 g/ha) it was 100%. Moreover, in experiment [5], the “efficacy (no laying of fertile eggs)” value is given as 100%.
`Cn1nc(C(F)(F)C(F)(F)F)c(C(F)(F)F)c1-n1cnc(-c2ccc(F)c(CNC(=O)C3CC3)c2)c1` [Ib-7] showed an efficacy in % in experiment [1] (application rate 100 g/ha) of 100%.
Still for that read-out and setting: in the case of `CC(=O)NCc1cc(-c2ccn(-c3c(C(F)(F)F)c(C(F)(F)C(F)(F)F)nn3C)n2)ccc1F` [Id-4] it was 100%; in that of `CCC(=O)NCc1cccc(-c2ccn(-c3c(C(F)(F)F)c(C(F)(F)C(F)(F)F)nn3C)n2)c1` [Id-5], 100%.
With `CC(=O)NCc1cccc(-c2cn(-c3c(C(F)(F)F)c(C(F)(F)C(F)(F)F)nn3C)nn2)c1` [Ig-6], the kill in % in experiment [2] and in experiment [3] was 100% throughout. Also, in experiment [1] (application rate 100 g/ha), the efficacy in % was found to be 100%. The “efficacy (no laying of fertile eggs)” value in experiment [5] amounted to 100%.
In the case of `CC(NC(=O)C1CC1)c1cccc(-c2cnn(-c3c(C(F)(F)F)c(C(F)(F)C(F)(F)F)nn3C)c2)c1` (racemic) [Ic-21], the results for the efficacy in % in experiment [1] (application rate 100 g/ha) and in experiment [7] (application rate 100 g/ha) were 100% and 90%, respectively.
In the case of `CCC(=O)NCc1cccc(-c2cn(-c3c(C(F)(F)F)c(C(F)(F)C(F)(F)F)nn3C)nn2)c1` [Ig-4], the kill in % in experiment [2], in experiment [3] and in experiment [6] was 100% in each case. The efficacy in % amounted to 100% in experiment [1] (application rate 100 g/ha) and 90% in experiment [7] (application rate 100 g/ha). Moreover, the “efficacy (no laying of fertile eggs)” value in experiment [5] worked out at 100%.
For the compound `Cn1nc(C(F)(F)C(F)(F)F)c(C(F)(F)F)c1-n1cc(-c2ccc(F)c(CNC(=O)c3ccccc3)c2)cn1` [Ic-14], the efficacy in % is given as 100% in experiment [1] (application rate 100 g/ha) and 90% in experiment [7] (application rate 100 g/ha). In addition, the “efficacy (no laying of fertile eggs)” value in experiment [5] amounted to 100%.
As to `Cn1nc(C(F)(F)C(F)(F)F)c(C(F)(F)F)c1-n1cc(-c2cncc(CNC(=O)C3CC3)c2)cn1` [Ic-29], the values for the efficacy in % in experiment [1] (application rate 100 g/ha) and in experiment [7] (application rate 100 g/ha) were 100% and 90%, respectively.
Regarding `Cn1nc(C(F)(F)C(F)(F)F)c(C(F)(F)F)c1-n1cc(-c2ccc(F)c(CNC(=O)C3CCOC3)c2)cn1` (racemic) [Ic-9], the kill in % in experiment [2] and in experiment [3] was 100% throughout. Further, the efficacy in % in experiment [1] (application rate 100 g/ha) was 100%; in experiment [7] (application rate 100 g/ha) it was 90%. In experiment [5], the “efficacy (no laying of fertile eggs)” value was determined as 100%.
On to `Cn1nc(C(F)(F)C(F)(F)F)c(C(F)(F)F)c1-n1ccc(-c2ccc(F)c(CNC(=O)C3CC3)c2)n1` [Id-9], for which the efficacy in % was 100% in experiment [1] (application rate 100 g/ha) and 83% in experiment [4] (application rate 100 g/ha). Besides, in experiment [5], the “efficacy (no laying of fertile eggs)” value stood at 90%.
Consider `Cn1nc(C(F)(F)C(F)(F)F)c(C(F)(F)F)c1-n1cc(-c2ccc(F)c(CNC(=O)CC(F)(F)F)c2)cn1` [Ic-5], for which the kill in % in experiment [2], in experiment [3] and in experiment [6] was 100% throughout. In addition, the efficacy in % in experiment [1] (application rate 100 g/ha), in experiment [4] (application rate 100 g/ha) and in experiment [7] (application rate 100 g/ha) was 100% each time. Besides, the “efficacy (no laying of fertile eggs)” value in experiment [5] is recorded as 100%.
Take `CC(C)C(=O)NCc1cc(-c2cnn(-c3c(C(F)(F)F)c(C(F)(F)C(F)(F)F)nn3C)c2)ccc1F` [Ic-28]: the kill in % in experiment [2] came out at 90%; in experiment [3], 100%. In addition, the efficacy in % in experiment [1] (application rate 100 g/ha) and in experiment [4] (application rate 100 g/ha) was 100% throughout. Besides, in experiment [5], the “efficacy (no laying of fertile eggs)” value is on record as 100%.
